Where two headings read alike, the source gives them in different places.
System: human pancreatic cancer-derived cell line SUIT-2
Assay: Cell viability (CellTiter Glo, intracellular ATP) of SUIT-2 in combination with cisplatin or oxaliplatin
Assay type: cell-based
Details: for viability at 0.0015 µM / viability at 0.0046 µM / viability at 0.0137 µM / viability at 0.0412 µM / viability at 0.1235 µM / viability at 0.3704 µM / viability at 1.1111 µM / viability at 3.3333 µM / viability at 10 µM / viability at 0.001 µM / viability at 0.003 µM / viability at 0.01 µM / viability at 0.03 µM / viability at 0.1 µM / viability at 0.3 µM / viability at 1 µM / viability at 3 µM / IC50: Homo sapiens; for viability at 0.0015 µM / viability at 0.0046 µM / viability at 0.0137 µM / viability at 0.0412 µM / viability at 0.1235 µM / viability at 0.3704 µM / viability at 1.1111 µM / viability at 3.3333 µM / viability at 10 µM / viability at 0.001 µM / viability at 0.003 µM / viability at 0.01 µM / viability at 0.03 µM / viability at 0.1 µM / viability at 0.3 µM / viability at 1 µM / viability at 3 µM: SUIT-2, 72 h, 3 days; for viability at 0.0015 µM / viability at 0.0046 µM / viability at 0.0137 µM / viability at 0.0412 µM / viability at 0.1235 µM / viability at 0.3704 µM / viability at 1.1111 µM / viability at 3.3333 µM / viability at 10 µM / viability at 0.001 µM / viability at 0.003 µM / viability at 0.01 µM / viability at 0.03 µM / viability at 0.1 µM / viability at 0.3 µM / viability at 1 µM / viability at 3 µM / combination index (CI): SUIT-2; for viability at 0.0015 µM: test substance 1.5 nM; for viability at 0.0046 µM: test substance 4.6 nM; for viability at 0.0137 µM: test substance 13.7 nM; for viability at 0.0412 µM: test substance 41.2 nM; for viability at 0.1235 µM: test substance 123.5 nM; for viability at 0.3704 µM: test substance 370.4 nM; for viability at 1.1111 µM: test substance 1111.1 nM; for viability at 3.3333 µM: test substance 3333.3 nM; for viability at 0.001 µM: test substance 1 nM; for viability at 0.003 µM: test substance 3 nM; for viability at 0.01 µM: test substance 10 nM; for viability at 0.03 µM: test substance 30 nM; for viability at 0.1 µM: test substance 100 nM; for viability at 0.3 µM: test substance 300 nM; for viability at 1 µM: test substance 1000 nM; for viability at 3 µM: test substance 3000 nM; for IC50: SUIT-2, SUIT-2, read-out: IC50 value (concentration that inhibits cell viability by 50%); for combination index (CI): CI<1 synergistic
Excerpt: Evaluation of antitumor activity against human pancreatic cancer-derived cell line SUIT-2 by combination use of cisplatin and oxaliplatin
Gemcitabine (hereinafter, also referred to as Gem), cisplatin, oxaliplatin, and methanesulfonate of Compound A were used as test substances.
Gemcitabine hydrochloride (manufactured by Plantex Co., Ltd.) dissolved in dimethyl sulfoxide (DMSO) was used as gemcitabine. Cisplatin (Cat. #039-20091, manufactured by Wako Pure Chemical Industries, Ltd.) and oxaliplatin (Cat. #00372, manufactured by Tokyo Chemical Industry Co., Ltd.), each of which dissolved in serum-free RPMI-1640 medium (Cat. #11875-119, manufactured by Thermo Fisher Scientific Inc.), were used as cisplatin and oxaliplatin, respectively.
Human pancreatic cancer cell line SUIT-2 cells were subcultured in RPMI-1640 medium supplemented with 10% serum (Cat. #10437-028, manufactured by Thermo Fisher Scientific Inc.). During this test, all cell cultures were carried out in a CO2 incubator (set to 37° C. and 5% CO2, saturated with water vapor). The culture was diluted with a 10% serum-supplemented medium to a cell density of 15000 cells/well/100 μL and the cells were seeded on a 96-well plate. On the next day, the culture supernatant of each well was discarded, followed by washing twice with 150 μL of serum-free medium, and 100 μL of serum-free medium was added thereto, followed by culturing for 3 days.
The methanesulfonate of Compound A and gemcitabine were dissolved in DMSO to prepare 100 mmol/L DMSO solutions thereof. The thus-prepared DMSO solutions were diluted sequentially with DMSO to prepare DMSO solutions having a final treatment concentration of 1000-fold dilution. Cisplatin and oxaliplatin were dissolved in serum-free medium to prepare a cisplatin solution 30 μmol/L and an oxaliplatin solution 60 μmol/L, respectively. The DMSO diluted solutions of Compound A and gemcitabine were diluted with the cisplatin solution (30 μmol/L) or the oxaliplatin solution (60 μmol/L) to prepare treatment liquids having a final treatment concentration of 6-fold dilution. Compound A and gemcitabine were used with a maximum concentration of 10 μmol/L at a common ratio of 1/3 and 9 concentrations in combination with cisplatin or oxaliplatin.
20 μL of Compound A or gemcitabine diluted with the cisplatin solution (30 μmol/L) or the oxaliplatin solution (60 μmol/L) was added to each well. In addition, a group in which only a solvent containing no drug was added to wells in which cells were seeded (positive control), and a group in which only a solvent containing no drug was added to wells containing only a medium (negative control) were provided. All groups were set to n=3 well.
The cells were cultured for 3 days after the addition of the drug, and the cell viability was evaluated using a CellTiter Glo (registered trademark) Reagent (Cat. #G7570, manufactured by Promega Corporation) with the intracellular ATP level as an index. The concentration that inhibits cell viability by 50% (IC50 value) was calculated using XLFit software Ver.3 (registered trademark, manufactured by CTC Laboratory Systems Corporation).
The cell viability of each well was determined with the luminescence signal level of the negative control being 0% cell viability and the luminescence signal level of the positive control being 100% cell viability. The average value and standard deviation of the cell viability of each treatment group were calculated to prepare Table 1 and Table 2.
On the combinational effect of the embodiment of the invention, the results of evaluation using a combination index (CI) which is a quantitative index of the combinational effect are shown. The CI can be calculated by the following equation according to Cancer Research, 2010, Vol. 70, pp. 440 to 446.
That is, in a case where the drugs to be used in combination are drug 1 and drug 2, the CI at a certain drug concentration is […]

[1] = with cisplatin 5 μmol/L, test substance 10000.0 nM
[2] = with oxaliplatin 10 μmol/L, test substance 10000 nM
[3] = used in combination with cisplatin (5 μmol/L, Table 1)
[4] = used in combination with oxaliplatin (10 μmol/L, Table 2)

| SMILES | viability at 0.0015 µM (with cisplatin 5 μmol/L) [%] | viability at 0.0046 µM (with cisplatin 5 μmol/L) [%] | viability at 0.0137 µM (with cisplatin 5 μmol/L) [%] | viability at 0.0412 µM (with cisplatin 5 μmol/L) [%] | viability at 0.1235 µM (with cisplatin 5 μmol/L) [%] | viability at 0.3704 µM (with cisplatin 5 μmol/L) [%] | viability at 1.1111 µM (with cisplatin 5 μmol/L) [%] | viability at 3.3333 µM (with cisplatin 5 μmol/L) [%] | viability at 10 µM [1] [%] | viability at 0.001 µM (with oxaliplatin 10 μmol/L) [%] | viability at 0.003 µM (with oxaliplatin 10 μmol/L) [%] | viability at 0.01 µM (with oxaliplatin 10 μmol/L) [%] | viability at 0.03 µM (with oxaliplatin 10 μmol/L) [%] | viability at 0.1 µM (with oxaliplatin 10 μmol/L) [%] | viability at 0.3 µM (with oxaliplatin 10 μmol/L) [%] | viability at 1 µM (with oxaliplatin 10 μmol/L) [%] | viability at 3 µM (with oxaliplatin 10 μmol/L) [%] | viability at 10 µM [2] [%] | IC50 [3] [nM] | IC50 [4] [nM] | also measured |
| --- | --- | --- | --- | --- | --- | --- | --- | --- | --- | --- | --- | --- | --- | --- | --- | --- | --- | --- | --- | --- | --- |
| Nc1ccn([C@@H]2S[C@H](CO)[C@@H](O)[C@@H]2F)c(=O)n1 [Compound A, 1-(2-deoxy-2-fluoro-4-thio-β-D-arabinofuranosyl)cytosine] | 96 | 80 | 47 | 33 | 28 | 28 | 26 | 27 | 30 | 94 | 93 | 87 | 60 | 46 | 41 | 38 | 39 | 38 | 12.9 | 73.4 | combination index (CI) (combination with cisplatin): 0.36; combination index (CI) (combination with oxaliplatin): 0.44 |
| Nc1ccn([C@@H]2O[C@H](CO)[C@@H](O)C2(F)F)c(=O)n1 [Gemcitabine] | 98 | 97 | 99 | 94 | 82 | 73 | 54 | 32 | 22 | 98 | 102 | 97 | 97 | 101 | 96 | 89 | 80 | 61 | 1140 | ≥ 10000 | combination index (CI) (combination with cisplatin): 0.96; combination index (CI) (combination with oxaliplatin): 0.97 |
